Experimental data taken from ChEMBL document CHEMBL3779811, “A new dammarane-type saponin from Gynostemma pentaphyllum induces apoptosis in A549 human lung carcinoma cells” (Bioorg Med Chem Lett, 2016).
Converted amounts (≈) assume the structure as drawn. The source made the active and inactive calls. The rule behind the calls is not given here.

Assays:
A549 [1] = test: Cytotoxicity against human A549 cells assessed as decrease in viable cells after 48 hrs by CCK-8 assay; format: functional, cell-based; details: for IC50: A549, 48 h
A549 [2] = test: Cytotoxicity against human A549 cells assessed as decrease in viable cells at 60 ug/mL after 48 hrs by CCK-8 assay; format: functional
A549 [3] = test: Induction of apoptosis in human A549 cells assessed as viable cells at 50 ug/mL after 48 hrs by Annexin V-FITC/propidium iodide staining based flow cytometry (reference value: 91.46 %); format: functional; details: A549, 48 h, read-out: Activity
A549 [4] = test: Induction of apoptosis in human A549 cells assessed as round and shrunken cells at 50 ug/mL after 48 hrs by inverted microscopy; format: functional, cell-based
A549 [5] = test: Induction of apoptosis in human A549 cells assessed as early apoptotic cells at 50 ug/mL after 48 hrs by Annexin V-FITC/propidium iodide staining based flow cytometry (reference value: 4.57 %); format: functional
A549 [6] = test: Induction of apoptosis in human A549 cells assessed as mitochondrial membrane potential at 50 ug/ml after 48 hrs by JC-1 staining based flow cytometry (reference value: 96.66%); format: functional
A549 [7] = test: Induction of apoptosis in human A549 cells assessed as late apoptotic cells at 50 ug/mL after 48 hrs by Annexin V-FITC/propidium iodide staining based flow cytometry (reference value: 3.38 %); format: functional
A549 [8] = test: Induction of apoptosis in human A549 cells assessed as loss of mitochondrial membrane potential by measuring ratio of red to green fluorescence at 50 ug/ml after 48 hrs by JC-1 staining based flow cytometry (reference value: 28.9); format: functional
A549 [9] = test: Induction of apoptosis in human A549 cells assessed as increase in detached cells at 50 ug/ml after 48 hrs by inverted microscopy; format: functional, cell-based
A549 [10] = test: Induction of apoptosis in human A549 cells assessed as chromatin condensation at 50 ug/mL after 48 hrs by Hoechst-33258 staining based fluorescence microscopy; format: functional, cell-based
A549 [11] = test: Induction of apoptosis in human A549 cells assessed as necrotic cells at 50 ug/mL after 48 hrs by Annexin V-FITC/propidium iodide staining based flow cytometry (reference value: 0.59 %); format: functional
A549 [12] = test: Induction of apoptosis in human A549 cells assessed as mitochondrial depolarization at 50 ug/ml after 48 hrs by JC-1 staining based fluorescence microscopy; format: functional, cell-based

SMILES | IC50 (A549 [1]) [µg/mL] | Activity (A549 [1]) | Activity (A549 [2]) [%] | further results
CC(C)=CCC[C@@](C)(O[C@@H]1O[C@H](CO[C@H]2OC[C@H](O)[C@@H](O)[C@@H]2O)[C@@H](O)[C@H](O)[C@H]1O)[C@@H]1CC[C@@]2(C)[C@H]1[C@@H](O)C[C@H]1[C@]3(C)C[C@H](O)[C@@H](O[C@H]4O[C@@H](CO)[C@H](O)[C@@H](O)[C@@H]4O[C@H]4O[C@@H](CO)[C@H](O)[C@@H](O)[C@@H]4O)C(C)(C)[C@H]3CC[C@@]12C | 168 (≈ 153 µM) |  |  | 
C=C(CCC=C(C)C)[C@H]1CC[C@]2(C)[C@@H]1[C@H](O)C[C@@H]1[C@@]3(C)C[C@@H](O)[C@H](O[C@@H]4O[C@H](CO)[C@@H](O)[C@H](O)[C@H]4O[C@@H]4O[C@H](COC(C)=O)[C@@H](O)[C@H](O)[C@H]4O)C(C)(C)[C@@H]3CC[C@]12C | 40.4 (≈ 49 µM) |  |  | 
C=C(CCC=C(C)C)[C@H]1CC[C@]2(C)[C@@H]1[C@H](O)C[C@@H]1[C@@]3(C)C[C@@H](O)[C@H](O[C@@H]4O[C@H](CO)[C@@H](O)[C@H](O)[C@H]4O[C@@H]4O[C@H](CO)[C@@H](O)[C@H](O)[C@H]4O)C(C)(C)[C@@H]3CC[C@]12C [DAMULIN B] | 23.8 (≈ 30.4 µM) |  |  | 
CC(C)=CCC[C@](C)(O)[C@H]1CC[C@]2(C)[C@@H]1[C@H](O)C[C@@H]1[C@@]3(C)C[C@@H](O)[C@H](O[C@@H]4O[C@H](CO)[C@@H](O)[C@H](O)[C@H]4O[C@@H]4O[C@H](CO)[C@@H](O)[C@H](O)[C@H]4O)C(C)(C)[C@@H]3CC[C@]12C | 78.6 (≈ 98.1 µM) | Dose-dependent effect | 37.2 | 
CC(=O)OC[C@H]1O[C@@H](O[C@H]2[C@H](O[C@H]3[C@H](O)C[C@]4(C)[C@H]5C[C@@H](O)[C@@H]6[C@@H](/C(C)=C\CC=C(C)C)CC[C@@]6(C)[C@]5(C)CC[C@H]4C3(C)C)O[C@H](CO)[C@@H](O)[C@@H]2O)[C@H](O)[C@@H](O)[C@@H]1O | 61.2 (≈ 74.2 µM) |  |  | 
CC(C)=CCC[C@@](C)(O)[C@H]1CC[C@]2(C)[C@@H]1[C@H](O)C[C@@H]1[C@@]3(C)C[C@@H](O)[C@H](O[C@@H]4O[C@H](CO)[C@@H](O)[C@H](O)[C@H]4O[C@@H]4O[C@H](CO)[C@@H](O)[C@H](O)[C@H]4O)C(C)(C)[C@@H]3CC[C@]12C | 91 (≈ 114 µM) | Dose-dependent effect | 30 | 
CC(C)=CCC[C@@](C)(O[C@@H]1O[C@H](CO)[C@@H](O)[C@H](O)[C@H]1O)[C@@H]1CC[C@@]2(C)[C@H]1[C@@H](O)C[C@H]1[C@]3(C)C[C@H](O)[C@@H](O[C@H]4O[C@@H](CO)[C@H](O)[C@@H](O)[C@@H]4O[C@H]4O[C@@H](CO)[C@H](O)[C@@H](O)[C@@H]4O)C(C)(C)[C@H]3CC[C@@]12C | 112 (≈ 116 µM) |  |  | 
CC(C)=CC/C=C(/C)[C@H]1CC[C@]2(C)[C@@H]1[C@H](O)C[C@@H]1[C@@]3(C)C[C@@H](O)[C@H](O[C@@H]4O[C@H](CO)[C@@H](O)[C@H](O)[C@H]4O[C@@H]4O[C@H](CO)[C@@H](O)[C@H](O)[C@H]4O)C(C)(C)[C@@H]3CC[C@]12C | 29 (≈ 37 µM) |  |  | 
CC(C)=CCC[C@](C)(O)[C@@H]1CC[C@@]2(C)[C@H]1[C@@H](O)C[C@H]1[C@]3(C)C[C@H](O)[C@@H](O[C@H]4O[C@@H](CO)[C@H](O)[C@@H](O)[C@@H]4O)C(C)(C)[C@H]3CC[C@@]12C | 74.3 (≈ 116 µM) | Dose-dependent effect | 44.7 | viability at 50 µg/mL (A549 [3]): 81.5%; Activity (A549 [4]): Active; Activity (A549 [5]): 14.34%; Activity (A549 [6]): 89.64%; Activity (A549 [7]): 2.74%; Ratio (A549 [8]): 8.7; Activity (A549 [9]): Active; Activity (A549 [10]): Active; Activity (A549 [11]): 1.44%; Activity (A549 [12]): Active
